Laboratory results reported in ChEMBL document CHEMBL5584255, “Synthesis and antibacterial medicinal evaluation of carbothioamido hydrazonyl thiazolylquinolone with multitargeting antimicrobial potential to combat increasingly global resistance” (Eur J Med Chem, 2024).
In brackets after ≈: the same amount, converted by molar mass.

Legend:
Assay type in all cases: functional
Staphylococcus aureus [1] = assay: Antibacterial activity against Staphylococcus aureus ATCC 25923 by microbroth dilution method
Staphylococcus aureus [2] = assay: Antibacterial activity against Staphylococcus aureus ATCC 29213 by microbroth dilution method
Staphylococcus aureus [3] = assay: Antibacterial activity against drug-resistant Staphylococcus aureus by microbroth dilution method
Staphylococcus aureus [4] = assay: Antibacterial activity against methicillin-resistant Staphylococcus aureus N315 by microbroth dilution method
Enterococcus faecalis = assay: Antibacterial activity against drug-resistant Enterococcus faecalis by microbroth dilution method
Candida albicans [5] = assay: Antifungal activity against Candida albicans ATCC 90023
Candida albicans [6] = assay: Antifungal activity against drug-resistant Candida albicans
Candida parapsilosis = assay: Antifungal activity against Candida parapsilosis ATCC 22019; settings: Lodderomyces parapsilosis
Candida tropicalis = assay: Antifungal activity against drug-resistant Candida tropicalis
Aspergillus fumigatus = assay: Antifungal activity against Aspergillus fumigatus
Escherichia coli [7] = assay: Antibacterial activity against Escherichia coli ATCC 25922 by microbroth dilution method
Pseudomonas aeruginosa [8] = assay: Antibacterial activity against Pseudomonas aeruginosa ATCC 27853 by microbroth dilution method
Escherichia coli [9] = assay: Antibacterial activity against drug-resistant Escherichia coli by microbroth dilution method
Pseudomonas aeruginosa [10] = assay: Antibacterial activity against Pseudomonas aeruginosa by microbroth dilution method
Klebsiella pneumoniae = assay: Antibacterial activity against Klebsiella pneumoniae by microbroth dilution method
Acinetobacter baumannii = assay: Antibacterial activity against Acinetobacter baumannii by microbroth dilution method

## C/C(Cn1cc(-c2csc(C)n2)c(=O)c2cc(F)c(Cl)cc21)=N\NC(N)=S
Staphylococcus aureus [1]
  MIC: 605 µM (≈ 256 µg/mL)
Staphylococcus aureus [2]
  MIC: 605 µM (≈ 256 µg/mL)
Staphylococcus aureus [3]
  MIC: 605 µM (≈ 256 µg/mL)
Staphylococcus aureus [4]
  MIC: 605 µM (≈ 256 µg/mL)
Enterococcus faecalis
  MIC: 605 µM (≈ 256 µg/mL)
Candida albicans [5]
  MIC: 605 µM (≈ 256 µg/mL)
Candida albicans [6]
  MIC: 605 µM (≈ 256 µg/mL)
Candida parapsilosis
  MIC: 605 µM (≈ 256 µg/mL)
Candida tropicalis
  MIC: 303 µM (≈ 128 µg/mL)
Aspergillus fumigatus
  MIC: 1210 µM (≈ 513 µg/mL)
Escherichia coli [7]
  MIC: 605 µM (≈ 256 µg/mL)
Pseudomonas aeruginosa [8]
  MIC: 303 µM (≈ 128 µg/mL)
Escherichia coli [9]
  MIC: 605 µM (≈ 256 µg/mL)
Pseudomonas aeruginosa [10]
  MIC: 605 µM (≈ 256 µg/mL)
Klebsiella pneumoniae
  MIC: 605 µM (≈ 256 µg/mL)
Acinetobacter baumannii
  MIC: 605 µM (≈ 256 µg/mL)

## CC(=O)Cn1cc(-c2csc(N)n2)c(=O)c2cccc(F)c21
Staphylococcus aureus [1]
  MIC: 404 µM (≈ 128 µg/mL)
Staphylococcus aureus [2]
  MIC: 807 µM (≈ 256 µg/mL)
Staphylococcus aureus [3]
  MIC: 807 µM (≈ 256 µg/mL)
Staphylococcus aureus [4]
  MIC: 404 µM (≈ 128 µg/mL)
Enterococcus faecalis
  MIC: 404 µM (≈ 128 µg/mL)
Candida albicans [5]
  MIC: 404 µM (≈ 128 µg/mL)
Candida albicans [6]
  MIC: 404 µM (≈ 128 µg/mL)
Candida parapsilosis
  MIC: 404 µM (≈ 128 µg/mL)
Candida tropicalis
  MIC: 202 µM (≈ 64.1 µg/mL)
Aspergillus fumigatus
  MIC: 404 µM (≈ 128 µg/mL)
Escherichia coli [7]
  MIC: 807 µM (≈ 256 µg/mL)
Pseudomonas aeruginosa [8]
  MIC: 404 µM (≈ 128 µg/mL)
Escherichia coli [9]
  MIC: 807 µM (≈ 256 µg/mL)
Pseudomonas aeruginosa [10]
  MIC: 807 µM (≈ 256 µg/mL)
Klebsiella pneumoniae
  MIC: 404 µM (≈ 128 µg/mL)
Acinetobacter baumannii
  MIC: 404 µM (≈ 128 µg/mL)

## CC(=O)Cn1cc(-c2csc(N)n2)c(=O)c2cc(F)cc(F)c21
Staphylococcus aureus [1]
  MIC: 382 µM (≈ 128 µg/mL)
Staphylococcus aureus [2]
  MIC: 382 µM (≈ 128 µg/mL)
Staphylococcus aureus [3]
  MIC: 764 µM (≈ 256 µg/mL)
Staphylococcus aureus [4]
  MIC: 382 µM (≈ 128 µg/mL)
Enterococcus faecalis
  MIC: 382 µM (≈ 128 µg/mL)
Candida albicans [5]
  MIC: 382 µM (≈ 128 µg/mL)
Candida albicans [6]
  MIC: 764 µM (≈ 256 µg/mL)
Candida parapsilosis
  MIC: 764 µM (≈ 256 µg/mL)
Candida tropicalis
  MIC: 382 µM (≈ 128 µg/mL)
Aspergillus fumigatus
  MIC: 382 µM (≈ 128 µg/mL)
Escherichia coli [7]
  MIC: 382 µM (≈ 128 µg/mL)
Pseudomonas aeruginosa [8]
  MIC: 191 µM (≈ 64 µg/mL)
Escherichia coli [9]
  MIC: 382 µM (≈ 128 µg/mL)
Pseudomonas aeruginosa [10]
  MIC: 382 µM (≈ 128 µg/mL)
Klebsiella pneumoniae
  MIC: 764 µM (≈ 256 µg/mL)
Acinetobacter baumannii
  MIC: 382 µM (≈ 128 µg/mL)

## CC(=O)Cn1cc(-c2csc(N)n2)c(=O)c2cc(F)ccc21
Staphylococcus aureus [1]
  MIC: 202 µM (≈ 64.1 µg/mL)
Staphylococcus aureus [2]
  MIC: 404 µM (≈ 128 µg/mL)
Staphylococcus aureus [3]
  MIC: 404 µM (≈ 128 µg/mL)
Staphylococcus aureus [4]
  MIC: 404 µM (≈ 128 µg/mL)
Enterococcus faecalis
  MIC: 807 µM (≈ 256 µg/mL)
Candida albicans [5]
  MIC: 51 µM (≈ 16.2 µg/mL)
Candida albicans [6]
  MIC: 404 µM (≈ 128 µg/mL)
Candida parapsilosis
  MIC: 1620 µM (≈ 513 µg/mL)
Candida tropicalis
  MIC: 404 µM (≈ 128 µg/mL)
Aspergillus fumigatus
  MIC: 404 µM (≈ 128 µg/mL)
Escherichia coli [7]
  MIC: 404 µM (≈ 128 µg/mL)
Pseudomonas aeruginosa [8]
  MIC: 404 µM (≈ 128 µg/mL)
Escherichia coli [9]
  MIC: 404 µM (≈ 128 µg/mL)
Pseudomonas aeruginosa [10]
  MIC: 404 µM (≈ 128 µg/mL)
Klebsiella pneumoniae
  MIC: 807 µM (≈ 256 µg/mL)
Acinetobacter baumannii
  MIC: 807 µM (≈ 256 µg/mL)

## Nc1nc(-c2c[nH]c3ccc(F)cc3c2=O)cs1
Staphylococcus aureus [1]
  MIC: 490 µM (≈ 128 µg/mL)
Staphylococcus aureus [2]
  MIC: 490 µM (≈ 128 µg/mL)
Staphylococcus aureus [3]
  MIC: 490 µM (≈ 128 µg/mL)
Staphylococcus aureus [4]
  MIC: 490 µM (≈ 128 µg/mL)
Enterococcus faecalis
  MIC: 490 µM (≈ 128 µg/mL)
Candida albicans [5]
  MIC: 61 µM (≈ 15.9 µg/mL)
Candida albicans [6]
  MIC: 245 µM (≈ 64 µg/mL)
Candida parapsilosis
  MIC: 245 µM (≈ 64 µg/mL)
Candida tropicalis
  MIC: 490 µM (≈ 128 µg/mL)
Aspergillus fumigatus
  MIC: 245 µM (≈ 64 µg/mL)
Escherichia coli [7]
  MIC: 490 µM (≈ 128 µg/mL)
Pseudomonas aeruginosa [8]
  MIC: 245 µM (≈ 64 µg/mL)
Escherichia coli [9]
  MIC: 490 µM (≈ 128 µg/mL)
Pseudomonas aeruginosa [10]
  MIC: 981 µM (≈ 256 µg/mL)
Klebsiella pneumoniae
  MIC: 490 µM (≈ 128 µg/mL)
Acinetobacter baumannii
  MIC: 490 µM (≈ 128 µg/mL)

## C/C(Cn1cc(-c2csc(N)n2)c(=O)c2cccc(F)c21)=N\NC(N)=S
Staphylococcus aureus [1]
  MIC: 41 µM (≈ 16 µg/mL)
Staphylococcus aureus [2]
  MIC: 21 µM (≈ 8.2 µg/mL)
Staphylococcus aureus [3]
  MIC: 21 µM (≈ 8.2 µg/mL)
Staphylococcus aureus [4]
  MIC: 41 µM (≈ 16 µg/mL)
Enterococcus faecalis
  MIC: 328 µM (≈ 128 µg/mL)
Candida albicans [5]
  MIC: 328 µM (≈ 128 µg/mL)
Candida albicans [6]
  MIC: 656 µM (≈ 256 µg/mL)
Candida parapsilosis
  MIC: 656 µM (≈ 256 µg/mL)
Candida tropicalis
  MIC: 656 µM (≈ 256 µg/mL)
Aspergillus fumigatus
  MIC: 1310 µM (≈ 513 µg/mL)
Escherichia coli [7]
  MIC: 328 µM (≈ 128 µg/mL)
Pseudomonas aeruginosa [8]
  MIC: 328 µM (≈ 128 µg/mL)
Escherichia coli [9]
  MIC: 656 µM (≈ 256 µg/mL)
Pseudomonas aeruginosa [10]
  MIC: 656 µM (≈ 256 µg/mL)
Klebsiella pneumoniae
  MIC: 328 µM (≈ 128 µg/mL)
Acinetobacter baumannii
  MIC: 656 µM (≈ 256 µg/mL)

## Cc1nc(-c2c[nH]c3cc(Cl)c(F)cc3c2=O)cs1
Staphylococcus aureus [1]
  MIC: 435 µM (≈ 128 µg/mL)
Staphylococcus aureus [2]
  MIC: 871 µM (≈ 257 µg/mL)
Staphylococcus aureus [3]
  MIC: 871 µM (≈ 257 µg/mL)
Staphylococcus aureus [4]
  MIC: 435 µM (≈ 128 µg/mL)
Enterococcus faecalis
  MIC: 871 µM (≈ 257 µg/mL)
Candida albicans [5]
  MIC: 109 µM (≈ 32.1 µg/mL)
Candida albicans [6]
  MIC: 435 µM (≈ 128 µg/mL)
Candida parapsilosis
  MIC: 218 µM (≈ 64.3 µg/mL)
Candida tropicalis
  MIC: 871 µM (≈ 257 µg/mL)
Aspergillus fumigatus
  MIC: 435 µM (≈ 128 µg/mL)
Escherichia coli [7]
  MIC: 435 µM (≈ 128 µg/mL)
Pseudomonas aeruginosa [8]
  MIC: 435 µM (≈ 128 µg/mL)
Escherichia coli [9]
  MIC: 1740 µM (≈ 513 µg/mL)
Pseudomonas aeruginosa [10]
  MIC: 871 µM (≈ 257 µg/mL)
Klebsiella pneumoniae
  MIC: 871 µM (≈ 257 µg/mL)
Acinetobacter baumannii
  MIC: 435 µM (≈ 128 µg/mL)

## Nc1nc(Cn2cc(-c3csc(N)n3)c(=O)c3cc(F)c(Cl)cc32)cs1
Staphylococcus aureus [1]
  MIC: 39 µM (≈ 15.9 µg/mL)
Staphylococcus aureus [2]
  MIC: 20 µM (≈ 8.16 µg/mL)
Staphylococcus aureus [3]
  MIC: 39 µM (≈ 15.9 µg/mL)
Staphylococcus aureus [4]
  MIC: 315 µM (≈ 128 µg/mL)
Enterococcus faecalis
  MIC: 315 µM (≈ 128 µg/mL)
Candida albicans [5]
  MIC: 39 µM (≈ 15.9 µg/mL)
Candida albicans [6]
  MIC: 157 µM (≈ 64 µg/mL)
Candida parapsilosis
  MIC: 79 µM (≈ 32.2 µg/mL)
Candida tropicalis
  MIC: 315 µM (≈ 128 µg/mL)
Aspergillus fumigatus
  MIC: 315 µM (≈ 128 µg/mL)
Escherichia coli [7]
  MIC: 20 µM (≈ 8.16 µg/mL)
Pseudomonas aeruginosa [8]
  MIC: 39 µM (≈ 15.9 µg/mL)
Escherichia coli [9]
  MIC: 157 µM (≈ 64 µg/mL)
Pseudomonas aeruginosa [10]
  MIC: 157 µM (≈ 64 µg/mL)
Klebsiella pneumoniae
  MIC: 315 µM (≈ 128 µg/mL)
Acinetobacter baumannii
  MIC: 157 µM (≈ 64 µg/mL)

## C/C(Cn1cc(-c2csc(N)n2)c(=O)c2cc(F)c(F)cc21)=N\NC(N)=S
Staphylococcus aureus [1]
  MIC: 78 µM (≈ 31.9 µg/mL)
Staphylococcus aureus [2]
  MIC: 39 µM (≈ 15.9 µg/mL)
Staphylococcus aureus [3]
  MIC: 78 µM (≈ 31.9 µg/mL)
Staphylococcus aureus [4]
  MIC: 78 µM (≈ 31.9 µg/mL)
Enterococcus faecalis
  MIC: 627 µM (≈ 256 µg/mL)
Candida albicans [5]
  MIC: 314 µM (≈ 128 µg/mL)
Candida albicans [6]
  MIC: 1260 µM (≈ 513 µg/mL)
Candida parapsilosis
  MIC: 1260 µM (≈ 513 µg/mL)
Candida tropicalis
  MIC: 1260 µM (≈ 513 µg/mL)
Aspergillus fumigatus
  MIC: 314 µM (≈ 128 µg/mL)
Escherichia coli [7]
  MIC: 314 µM (≈ 128 µg/mL)
Pseudomonas aeruginosa [8]
  MIC: 314 µM (≈ 128 µg/mL)
Escherichia coli [9]
  MIC: 627 µM (≈ 256 µg/mL)
Pseudomonas aeruginosa [10]
  MIC: 314 µM (≈ 128 µg/mL)
Klebsiella pneumoniae
  MIC: 627 µM (≈ 256 µg/mL)
Acinetobacter baumannii
  MIC: 314 µM (≈ 128 µg/mL)

## CC(=O)Cn1cc(-c2csc(C)n2)c(=O)c2cc(F)ccc21
Staphylococcus aureus [1]
  MIC: 1620 µM (≈ 512 µg/mL)
Staphylococcus aureus [2]
  MIC: 405 µM (≈ 128 µg/mL)
Staphylococcus aureus [3]
  MIC: 1620 µM (≈ 512 µg/mL)
Staphylococcus aureus [4]
  MIC: 1620 µM (≈ 512 µg/mL)
Enterococcus faecalis
  MIC: 1620 µM (≈ 512 µg/mL)
Candida albicans [5]
  MIC: 405 µM (≈ 128 µg/mL)
Candida albicans [6]
  MIC: 810 µM (≈ 256 µg/mL)
Candida parapsilosis
  MIC: 1620 µM (≈ 512 µg/mL)
Candida tropicalis
  MIC: 810 µM (≈ 256 µg/mL)
Aspergillus fumigatus
  MIC: 810 µM (≈ 256 µg/mL)
Escherichia coli [7]
  MIC: 1620 µM (≈ 512 µg/mL)
Pseudomonas aeruginosa [8]
  MIC: 810 µM (≈ 256 µg/mL)
Escherichia coli [9]
  MIC: 1620 µM (≈ 512 µg/mL)
Pseudomonas aeruginosa [10]
  MIC: 810 µM (≈ 256 µg/mL)
Klebsiella pneumoniae
  MIC: 810 µM (≈ 256 µg/mL)
Acinetobacter baumannii
  MIC: 1620 µM (≈ 512 µg/mL)
